Laboratory results reported in the NIST ThermoML archive (doi:10.1016/j.tca.2015.08.013).

Legend:
[1] = refractive index (Na D-line) (dimensionless); details: 101.33 kPa, Liquid, Standard Abbe refractometry
[2] = relative permittivity at various frequencies (dimensionless); details: 99 kPa, Liquid, Frequency=2 MHz, Parallel plate capacitor

c1ccoc1 [furan]
Details	refractive index, [1]	relative permittivity, [2]
278.15 K	–	3.124
280.65 K	–	3.094
283.15 K	1.42784	3.068
285.65 K	1.42625	3.036
288.15 K	1.42463	3.009
290.65 K	1.42303	2.988
293.15 K	1.42141	2.958
295.65 K	1.41979	2.934
298.15 K	1.41814	2.913
300.65 K	1.4165	2.892
303.15 K	1.41485	2.865

Cc1ccco1 [2-methylfuran]
Details	refractive index, [1]	relative permittivity, [2]
278.15 K	–	2.976
280.65 K	–	2.967
283.15 K	1.43942	2.944
285.65 K	1.43794	2.933
288.15 K	1.43644	2.911
290.65 K	1.43495	2.893
293.15 K	1.43344	2.874
295.65 K	1.43194	2.854
298.15 K	1.43044	2.84
300.65 K	1.42893	2.814
303.15 K	1.42742	2.8
305.65 K	1.4259	2.775
308.15 K	1.4244	2.76
310.65 K	1.42289	2.735
313.15 K	1.42138	2.72
315.65 K	1.41984	2.696
318.15 K	1.41831	2.678
320.65 K	1.41675	2.656
323.15 K	1.41521	2.636
325.65 K	1.41366	2.617
328.15 K	1.41212	2.596
330.65 K	1.41059	2.577
333.15 K	1.40907	2.556
335.65 K	1.40747	2.538
338.15 K	1.40589	2.518

Cc1ccc(C)o1 [2,5-dimethylfuran]
Details	refractive index, [1]	relative permittivity, [2]
278.15 K	–	2.562
280.65 K	–	2.553
283.15 K	1.4477	2.538
285.65 K	1.44645	2.526
288.15 K	1.44494	2.516
290.65 K	1.44362	2.499
293.15 K	1.44218	2.492
295.65 K	1.44079	2.472
298.15 K	1.43942	2.462
300.65 K	1.43796	2.445
303.15 K	1.43665	2.434
305.65 K	1.43513	2.418
308.15 K	1.43383	2.404
310.65 K	1.4323	2.391
313.15 K	1.43098	2.376
315.65 K	1.42947	2.364
318.15 K	1.42815	2.349
320.65 K	1.42664	2.337
323.15 K	1.42525	2.321
325.65 K	1.42381	2.31
328.15 K	1.42239	2.292
330.65 K	1.42098	2.283
333.15 K	1.41948	2.272
335.65 K	1.41815	2.256
338.15 K	1.41657	2.245
